Laboratory results taken from the CheMixHub viscosity set.

Assay: xn = mol fraction of the nth substance listed

O=C(O)c1ccccc1C(=O)O + CCCCO
viscosity [mPa·s]
Conditions	308.15 K	313.15 K	318.15 K	323.15 K
101 kPa, x1 = 0.021	–	–	1.806	1.604
101 kPa, x1 = 0.032	–	–	1.928	1.712
101 kPa, x1 = 0.039	–	–	1.985	1.78
101.33 kPa, x1 = 0.021	2.302	2.033	1.806	1.604
101.33 kPa, x1 = 0.032	–	2.18	1.928	1.712

CCCCCCCCN + COCCO
308.15 K, 101 kPa
Conditions	viscosity [mPa·s]
x2 = 0.1894	1.275
x2 = 0.3445	1.474
x2 = 0.4739	1.614
x2 = 0.5835	1.667
x2 = 0.6777	1.67
x2 = 0.7592	1.609
x2 = 0.8307	1.556
x2 = 0.8937	1.482
x2 = 0.9498	1.379

OCCOCCO + CS(C)=O
308.15 K, 101 kPa
Conditions	viscosity [mPa·s]
x2 = 0.0978	16.69
x2 = 0.1794	15.85
x2 = 0.2569	14.94
x2 = 0.3945	13.49
x2 = 0.4797	12.36
x2 = 0.5804	10.83
x2 = 0.6748	8.995
x2 = 0.7945	6.227
x2 = 0.9146	3.442

O=Cc1ccccc1 + CC(C)CCO
298.1 K, 101 kPa
Conditions	viscosity [mPa·s]
x1 = 0.1103	2.842
x1 = 0.202	2.39
x1 = 0.2988	2.057
x1 = 0.3333	1.959
x1 = 0.4051	1.809
x1 = 0.4839	1.67
x1 = 0.6101	1.51
x1 = 0.6944	1.44
x1 = 0.7979	1.373
x1 = 0.8987	1.34

C[N+](C)(C)CCO.[Cl-] + CC(O)CO
Conditions	viscosity [mPa·s]
293.15 K, 100 kPa, x1 = 0.25	89.38
293.15 K, 101 kPa, x2 = 0.8	95.09
293.15 K, 101.3 kPa, x2 = 0.7498	94.05
293.15 K, 101.3 kPa, x2 = 0.8003	80.19
293.15 K, 101.3 kPa, x2 = 0.8328	73.34
293.15 K, 101.3 kPa, x2 = 0.8567	70.57
298 K, 100 kPa, x1 = 0.333	95.5
298 K, 101.3 kPa, x1 = 0.333	70
298.15 K, 100 kPa, x1 = 0.25	68.43
298.15 K, 101.3 kPa, x2 = 0.7498	72.1
298.15 K, 101.3 kPa, x2 = 0.8003	61.49
298.15 K, 101.3 kPa, x2 = 0.8328	57.12
298.15 K, 101.3 kPa, x2 = 0.8567	55.1
298.15 K, 101.33 kPa, x2 = 0.7	36
303 K, 100 kPa, x1 = 0.333	74.2
303.15 K, 100 kPa, x1 = 0.25	53.34
303.15 K, 101 kPa, x2 = 0.8	56.64
303.15 K, 101.3 kPa, x2 = 0.7498	56.26
303.15 K, 101.3 kPa, x2 = 0.8003	47.74
303.15 K, 101.3 kPa, x2 = 0.8328	44.41
303.15 K, 101.3 kPa, x2 = 0.8567	43.01
308 K, 100 kPa, x1 = 0.333	57.6
308.15 K, 100 kPa, x1 = 0.25	42.26
308.15 K, 101.3 kPa, x2 = 0.7498	44.5
308.15 K, 101.3 kPa, x2 = 0.8003	37.47
308.15 K, 101.3 kPa, x2 = 0.8328	34.61
308.15 K, 101.3 kPa, x2 = 0.8567	33.33
313 K, 100 kPa, x1 = 0.333	46.2
313.15 K, 100 kPa, x1 = 0.25	33.93
313.15 K, 101 kPa, x2 = 0.8	36.06
313.15 K, 101.3 kPa, x2 = 0.7498	35.89
313.15 K, 101.3 kPa, x2 = 0.8003	30.4
313.15 K, 101.3 kPa, x2 = 0.8328	27.67
313.15 K, 101.3 kPa, x2 = 0.8567	26.42
318 K, 100 kPa, x1 = 0.333	37.9
318.15 K, 100 kPa, x1 = 0.25	27.71
318.15 K, 101.3 kPa, x2 = 0.7498	29.15
318.15 K, 101.3 kPa, x2 = 0.8003	24.7
318.15 K, 101.3 kPa, x2 = 0.8328	22.49
318.15 K, 101.3 kPa, x2 = 0.8567	21.11
323 K, 100 kPa, x1 = 0.333	31.8
323 K, 101.3 kPa, x1 = 0.333	19
323.15 K, 100 kPa, x1 = 0.25	22.88
323.15 K, 101 kPa, x2 = 0.8	24.26
323.15 K, 101.3 kPa, x2 = 0.7498	24.25
323.15 K, 101.3 kPa, x2 = 0.8003	20.43
323.15 K, 101.3 kPa, x2 = 0.8328	18.56
323.15 K, 101.3 kPa, x2 = 0.8567	17.41

CC(C)CCCC(C)CCCC(C)CCCCC(C)CCCC(C)CCCC(C)C (centres undefined) + CC(C)O
viscosity [mPa·s], 101 kPa
Conditions	x2 = 0.0621	x2 = 0.218	x2 = 0.4022
298.15 K	–	19.65	–
303.15 K	18.75	15.45	13.05

CCCCCCCCCCCCO + CCCCCCCCCO
viscosity [mPa·s], 101.8 kPa
Conditions	x2 = 0.1246	x2 = 0.3557	x2 = 0.5641	x2 = 0.7516	x2 = 0.9218
298.15 K	15.91	14.07	12.49	11.2	10.02
308.15 K	10.86	9.686	8.677	7.814	7.056
318.15 K	7.599	6.831	6.182	5.591	5.091

CCCC[N+](CCCC)(CCCC)CCCC.[Cl-] + N[C@@H](CO)C(=O)O
Conditions	viscosity [mPa·s]
323.15 K, 101 kPa, x1 = 0.9	491
